# Laboratory results from US9163256B2, “Mutant receptors and their use in a nuclear receptor-based inducible gene expression system” (priority 2004, dated 2015).
# Like-named read-outs stand apart in the source and are kept apart here.
# What was measured:
# [1] = molecular target: CfEcR-DEF mutant A110P (Choristoneura fumiferana, UniProt O77255, A393P); assay: cell-based
# Procedure: (§1) This construct was prepared in the same way as in switch 1.1 above except wild-type CfEcR-DEF was replaced with mutant CfEcR-DEF comprising a ligand binding domain comprising a substitution mutation selected from Table 1 below.
# (§2) DNAs were transfected into mouse NIH3T3 cells (ATCC) as follows. Standard methods for culture and maintenance of the cells were followed. Cells were harvested and plated 96-well plates at 2,500 cells per well, in 50 μL of growth medium containing 10% fetal bovine serum (FBS). Twenty-four hours later, the cells were treated with 35 μL of serum-free growth medium containing either dimethylsulfoxide (DMSO; control) or a DMSO solution of ligand. The cells were then transfected using Superfect (Qiagen Inc.) transfection reagent. For each well, 0.625 μL of Superfect was mixed with 14.2 μL of serum-free growth medium. 0.16 μg of reporter construct and 0.04 μg of each receptor construct were added to the transfection reagent mix. The contents of the transfection mix were mixed in a vortex mixer and let stand at room temperature for 30 minutes. At the end of incubation, 15 μL of transfection mix was added to the cells. The cells were maintained at 37° C. and 5% CO2 for 48 hours in 5% FBS.
# (§3) Reporter Assays: Cells were harvested 40 hours after adding ligands. 125 μL of passive lysis buffer (part of Dual-Luciferase reporter assay system from Promega Corporation) were added to each well of the […] plate. The plates were placed on a rotary shaker for 15 minutes. Twenty μL of lysate were assayed. Luciferase activity was measured using Dual-Luciferase reporter assay system from Promega Corporation following the manufacturer's instructions. Fold induction (FI) activities were calculated by dividing relative light units (“RLU”) in ligand treated cells with RLU in DMSO treated cells (untreated control).
# [2] = molecular target: CfEcR-DEF mutant F48L (Choristoneura fumiferana, UniProt O77255, F331L); assay: cell-based
# Procedure: as §1, §2, §3
# [3] = molecular target: CfEcR-DEF mutant L234M (Choristoneura fumiferana, UniProt O77255, L517M); assay: cell-based
# Procedure: as §1, §2, §3
# [4] = molecular target: CfEcR-DEF mutant M125R (Choristoneura fumiferana, UniProt O77255, M408R); assay: cell-based
# Procedure: as §1, §2, §3
# [5] = molecular target: CfEcR-DEF mutant M92L (Choristoneura fumiferana, UniProt O77255, M375L); assay: cell-based
# Procedure: as §1, §2, §3
# [6] = molecular target: CfEcR-DEF mutant T52E (Choristoneura fumiferana, UniProt O77255, T335E); assay: cell-based
# Procedure: as §1, §2, §3
# [7] = molecular target: CfEcR-DEF mutant A110N (Choristoneura fumiferana, UniProt O77255, A393N); assay: cell-based
# Procedure: as §1, §2, §3
# [8] = molecular target: CfEcR-DEF mutant F109M (Choristoneura fumiferana, UniProt O77255, F392M); assay: cell-based
# Procedure: as §1, §2, §3
# [9] = molecular target: CfEcR-DEF mutant F48W (Choristoneura fumiferana, UniProt O77255, F331W); assay: cell-based
# Procedure: as §1, §2, §3
# [10] = molecular target: CfEcR-DEF mutant F48Y (Choristoneura fumiferana, UniProt O77255, F331Y); assay: cell-based
# Procedure: as §1, §2, §3
# [11] = molecular target: CfEcR-DEF mutant T52P (Choristoneura fumiferana, UniProt O77255, T335P); assay: cell-based
# Procedure: as §1, §2, §3
# [12] = molecular target: CfEcR-DEF mutant V128F (Choristoneura fumiferana, UniProt O77255, V411F); assay: cell-based
# Procedure: as §1, §2, §3
# [13] = molecular target: CfEcR-DEF mutant V96E (Choristoneura fumiferana, UniProt O77255, V379E); assay: cell-based
# Procedure: as §1, §2, §3
# [14] = molecular target: CfEcR-DEF mutant W238E (Choristoneura fumiferana, UniProt O77255, W521E); assay: cell-based
# Procedure: as §1, §2, §3
# [15] = molecular target: CfEcR-DEF mutant Y120M (Choristoneura fumiferana, UniProt O77255, Y403M); assay: cell-based
# Procedure: as §1, §2, §3
# [16] = molecular target: CfEcR-DEF mutant V107I/Y127E/G (Choristoneura fumiferana, UniProt O77255, INS541G/V390I/Y410E); assay: GAL4-driven luciferase reporter assay in NIH3T3 cells; assay type: cell-based
# Procedure: as §1
# The Gal-4-CfEcR-DEF(VYG) mutant was created by inserting an extra glycine at the C-terminal end of EcR substitution mutant V107I/Y127E [CfECR(VY)] by PCR. Essentially, this was done in two steps: PCR-amplification of CfEcR-DEF(VYG) and substitution of the CfEcR(VY) in the vector GAL4-CfEcR DEF(VY) pBIND 1-9 with the PCR-amplified CfEcR-DEF(VYG). The CfEcR-DEF region (with the extra glycine) was amplified by using the vector GAL4-CfEcR DEF(VY) pBIND 1-9 as template and the following PCR primers: […]
# as §2, §3
# [17] = molecular target: CfEcR-DEF mutant L132M (Choristoneura fumiferana, UniProt O77255, L415M); assay: cell-based; assay type: cell-based; details: for Emax: NIH3T3, 40 h, read-out: Rel Max FI, mutant L132M; for Rel Max FI: mutant L132M
# Procedure: as §1, §2, §3
# [18] = NIH3T3, 40 h, read-out: Rel Max FI
# [19] = relative to max fold induction of GS-E ligand
# CfEcR-DEF mutant T52P, sequence (P28702 298-449): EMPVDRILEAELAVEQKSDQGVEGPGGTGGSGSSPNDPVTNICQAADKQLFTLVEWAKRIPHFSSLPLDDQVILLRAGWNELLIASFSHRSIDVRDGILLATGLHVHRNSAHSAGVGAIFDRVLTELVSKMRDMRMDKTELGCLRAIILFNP
# CfEcR-DEF mutant T52P, sequence (O77255 entry or part of it T335P): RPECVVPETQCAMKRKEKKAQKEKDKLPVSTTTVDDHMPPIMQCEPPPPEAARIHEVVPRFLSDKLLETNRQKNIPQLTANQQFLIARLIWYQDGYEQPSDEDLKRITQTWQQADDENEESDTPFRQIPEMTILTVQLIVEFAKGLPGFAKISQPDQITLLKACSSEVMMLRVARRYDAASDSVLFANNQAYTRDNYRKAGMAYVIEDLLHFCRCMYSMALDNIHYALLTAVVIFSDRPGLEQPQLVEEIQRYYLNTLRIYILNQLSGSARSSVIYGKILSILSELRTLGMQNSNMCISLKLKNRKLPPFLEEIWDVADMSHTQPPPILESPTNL
# CfEcR-DEF mutant F48L, sequence (P28702 299-449): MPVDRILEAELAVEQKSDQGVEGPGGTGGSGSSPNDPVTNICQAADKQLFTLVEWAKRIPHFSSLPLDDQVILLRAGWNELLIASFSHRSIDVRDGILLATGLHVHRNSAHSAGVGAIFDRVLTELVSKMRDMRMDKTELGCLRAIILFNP
# CfEcR-DEF mutant F48L, sequence (O77255 entry or part of it F331L): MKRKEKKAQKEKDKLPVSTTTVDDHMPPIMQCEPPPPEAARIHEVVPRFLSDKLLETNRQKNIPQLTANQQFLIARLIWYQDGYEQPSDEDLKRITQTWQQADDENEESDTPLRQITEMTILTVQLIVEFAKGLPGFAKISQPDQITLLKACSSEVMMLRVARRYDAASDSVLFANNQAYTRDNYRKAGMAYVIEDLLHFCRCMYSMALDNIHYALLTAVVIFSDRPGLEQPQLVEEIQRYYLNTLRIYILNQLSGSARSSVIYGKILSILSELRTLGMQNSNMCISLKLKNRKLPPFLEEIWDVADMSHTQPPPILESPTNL
# CfEcR-DEF mutant V128F, sequence (P28702 299-449): as the sequence (P28702 299-449) above
# CfEcR-DEF mutant V128F, sequence (O77255 entry or part of it V411F): as the sequence (O77255 entry or part of it F331L) above, with L113F, V193F counted along it
# CfEcR-DEF mutant W238E, sequence (P28702 299-449): as the sequence (P28702 299-449) above
# CfEcR-DEF mutant W238E, sequence (O77255 entry or part of it W521E): as the sequence (O77255 entry or part of it F331L) above, with L113F, W303E counted along it
# CfEcR-DEF mutant M125R, sequence (P28702 299-449): as the sequence (P28702 299-449) above
# CfEcR-DEF mutant M125R, sequence (O77255 entry or part of it M408R): as the sequence (O77255 entry or part of it F331L) above, with L113F, M190R counted along it
# CfEcR-DEF mutant V107I/Y127E/G, sequence (P28702 299-449, stated change not applied): as the sequence (P28702 299-449) above
# CfEcR-DEF mutant V107I/Y127E/G, sequence (O77255 entry or part of it V390I/Y410E/INS541G): as the sequence (O77255 entry or part of it F331L) above, with L113F counted along it
# CfEcR-DEF mutant L234M, sequence (P28702 299-449): as the sequence (P28702 299-449) above
# CfEcR-DEF mutant L234M, sequence (O77255 entry or part of it L517M): as the sequence (O77255 entry or part of it T335P) above, with P129T, L311M counted along it
# CfEcR-DEF mutant F48W, sequence (P28702 299-449): as the sequence (P28702 299-449) above
# CfEcR-DEF mutant F48W, sequence (O77255 entry or part of it F331W): as the sequence (O77255 entry or part of it T335P) above, with F125W, P129T counted along it
# CfEcR-DEF mutant T52E, sequence (O77255 entry or part of it T335E): as the sequence (O77255 entry or part of it F331L) above, with L113F, T117E counted along it
# CfEcR-DEF mutant T52E, sequence (P28702 299-449, further chain): as the sequence (P28702 299-449) above
# CfEcR-DEF mutant A110N, sequence (O77255 entry or part of it A393N): as the sequence (O77255 entry or part of it T335P) above, with P129T, A187N counted along it
# CfEcR-DEF mutant A110N, sequence (P28702 299-449, stated change not applied, further chain): as the sequence (P28702 299-449) above
# CfEcR-DEF mutant F48Y, sequence (O77255 entry or part of it F331Y): as the sequence (O77255 entry or part of it T335P) above, with F125Y, P129T counted along it
# CfEcR-DEF mutant F48Y, sequence (P28702 299-449, further chain): as the sequence (P28702 299-449) above
# CfEcR-DEF mutant M92L, sequence (O77255 entry or part of it M375L): as the sequence (O77255 entry or part of it F331L) above, with L113F, M157L counted along it
# CfEcR-DEF mutant M92L, sequence (P28702 299-449, further chain): as the sequence (P28702 299-449) above
# CfEcR-DEF mutant Y120M, sequence (O77255 entry or part of it Y403M): as the sequence (O77255 entry or part of it F331L) above, with L113F, Y185M counted along it
# CfEcR-DEF mutant Y120M, sequence (P28702 299-449, further chain): as the sequence (P28702 299-449) above
# CfEcR-DEF mutant L132M, sequence (O77255 entry or part of it L415M): as the sequence (O77255 entry or part of it T335P) above, with P129T, L209M counted along it
# CfEcR-DEF mutant L132M, sequence (P28702 298-449, further chain): as the sequence (P28702 298-449) above
# CfEcR-DEF mutant F109M, sequence (O77255 entry or part of it F392M): as the sequence (O77255 entry or part of it T335P) above, with P129T, F186M counted along it
# CfEcR-DEF mutant F109M, sequence (P28702 299-449, further chain): as the sequence (P28702 299-449) above
# CfEcR-DEF mutant V96E, sequence (O77255 entry or part of it V379E): as the sequence (O77255 entry or part of it F331L) above, with L113F, V161E counted along it
# CfEcR-DEF mutant V96E, sequence (P28702 299-449, further chain): as the sequence (P28702 299-449) above
# CfEcR-DEF mutant A110P, sequence (O77255 entry or part of it A393P): as the sequence (O77255 entry or part of it T335P) above, with P129T, A187P counted along it
# CfEcR-DEF mutant A110P, sequence (P28702 299-449, stated change not applied, further chain): as the sequence (P28702 299-449) above
compound,measurement,setting,value
"Cc1cc(C)cc(C(=O)N(NC(=O)c2cccc(C(C)C)c2C)C(C)(C)C)c1 [RG-102362, 3,5-Dimethyl-benzoic acid N-tert-butyl-N′-(3-isopropyl-2-methyl-benzoyl)-hydrazide]",EC50,[1],770 nM
same,Emax,[1]; [18],64%
same,EC50,[2],0.56 µM
same,Emax,[2]; [18],53%
same,EC50,[3],2040 nM
same,Emax,[3]; [18],43%
same,EC50,[4],10.4 µM
same,Emax,[4]; [18],0%
same,EC50,[5],~20 µM
same,Emax,[5]; [18],5%
same,EC50,[6],7.16 µM
same,Emax,[6]; [18],34%
same,EC50,[7],720 nM
same,Emax,[7]; [18],86%
same,EC50,[8],0.82 µM
same,Emax,[8]; [18],60%
same,EC50,[9],0.77 µM
same,Emax,[9]; [18],51%
same,EC50,[10],0.59 µM
same,Emax,[10]; [18],48%
same,EC50,[11],~6 µM
same,Emax,[11]; [18],11%
same,EC50,"[12]; EC50, mutant V128F",> 33 µM
same,Emax,[12]; [18],234%
same,EC50,[13],1860 nM
same,Emax,[13]; [18],48%
same,EC50,[14],3.45 µM
same,Emax,[14]; [18],45%
same,EC50,[15],~10 µM
same,Emax,[15]; [18],13%
same,EC50,[16],60 nM
same,Emax,[16]; [18],81%
same,Emax,[17],1%
same,Emax,[17]; [19],66%
"CC(C)CC[C@@H](O)[C@](C)(O)[C@H]1CC[C@@]2(O)C3=CC(=O)[C@@H]4C[C@@H](O)[C@@H](O)C[C@]4(C)[C@H]3CC[C@]12C [PonA, ponasterone A]",EC50,"[1]; mutant A110P, read-out: EC50",> 33000 nM
same,Rel Max FI,"[1]; mutant A110P, relative to max fold induction of GS-E ligand",0
same,EC50,"[2]; mutant F48L, read-out: EC50",~10 µM
same,Rel Max FI,"[2]; mutant F48L, relative to max fold induction of GS-E ligand",0.59
same,Rel Max FI,[3]; mutant L234M,0.02
same,EC50,"[3]; mutant L234M, read-out: EC50",> 33000 nM
same,Rel Max FI,[4]; mutant M125R,0
same,EC50,"[4]; mutant M125R, read-out: EC50",~8 µM
same,Rel Max FI,[5]; mutant M92L,0
same,EC50,"[5]; mutant M92L, read-out: EC50",> 33 µM
same,Rel Max FI,[6]; mutant T52E,0
same,EC50,"[6]; mutant T52E, read-out: EC50",> 33 µM
same,EC50,"[7]; mutant A110N, read-out: EC50",> 33000 nM
same,Rel Max FI,"[7]; mutant A110N, relative to max fold induction of GS-E ligand",0
same,EC50,"[8]; mutant F109M, read-out: EC50",~20 µM
same,Rel Max FI,"[8]; mutant F109M, relative to max fold induction of GS-E ligand",0.16
same,EC50,"[9]; mutant F48W, read-out: EC50",~10 µM
same,Rel Max FI,"[9]; mutant F48W, relative to max fold induction of GS-E ligand",0.65
same,EC50,"[10]; mutant F48Y, read-out: EC50",~10 µM
same,Rel Max FI,"[10]; mutant F48Y, relative to max fold induction of GS-E ligand",0.33
same,Rel Max FI,[11]; mutant T52P,0.03
same,EC50,"[11]; mutant T52P, read-out: EC50",> 33 µM
same,Rel Max FI,[12]; mutant V128F,0.03
same,EC50,"[12]; mutant V128F, read-out: EC50",> 33 µM
same,Rel Max FI,[13]; mutant V96E,0.02
same,EC50,"[13]; mutant V96E, read-out: EC50",> 33000 nM
same,Rel Max FI,[14]; mutant W238E,0
same,EC50,"[14]; mutant W238E, read-out: EC50",> 33 µM
same,Rel Max FI,[15]; mutant Y120M,0.04
same,EC50,"[15]; mutant Y120M, read-out: EC50",> 33 µM
same,EC50,"[16]; mutant V107I/Y127E/G, read-out: EC50",1650 nM
same,Rel Max FI,"[16]; mutant V107I/Y127E/G, relative to max fold induction of GS-E ligand",0.67
same,Rel Max FI,[17],0.01
same,Rel Max FI,[17]; [19],0.57
